Results on three compounds are retold here after patent publication US20120321637A1, “COMBINATION CANCER THERAPY WITH HERV INHIBITION” (The Board of Regents of the University of Texas System, priority 2011, published 2012).

The subject of one series is A101D cell line. The note with it: human, 48 h, 1000 µM.
Series [1] deals with BRAF mutant metastatic melanomas. The note with it: phase I clinical trial; cited from earlier work.
The test system of another series is melanoma. The note with it: monotherapy; cited from earlier work.

Description for A101D cell line: The A101D cell line was treated with various combinations of PD98059 (P), 219476 (C), and AZT (A) for 48hrs after which the MTS assay was done.
CellTiter 96 Aqueous One Solution Cell Proliferation Assay (MTS, Promega) was used to measure total vial cells following manufacturer's instructions. 5,000 melanoma cells were seeded in each well of 96-well plates, and were grown for 24 hrs in media with 10% Fetal Bovine Serum (FBS). After that period, media were aspirated and various combinations of treatments were added to each well in media without serum. Based on dose-response analyses, the final concentrations used were: PD90895 at 25 μM; 219476 at 1 μM; AZT at 1000 μM. The plates were incubated for a period of 24 hrs, 48hrs, and 72 hrs, respectively. Then, the MTS solution was added to each well according to the manufacturers protocol. The plates were again incubated for 2-4 hrs, after which absorbance was measured at 490 nm. Data were analyzed and compared for treatment efficiency.

For the compound `Cc1cn([C@H]2C[C@H](N=[N+]=[N-])[C@@H](CO)O2)c(=O)[nH]c1=O` [AZT], the viability with A101D cell line is on record as 87.4%. Regarding `CCCS(=O)(=O)Nc1ccc(F)c(C(=O)c2c[nH]c3ncc(-c4ccc(Cl)cc4)cc23)c1F` [PLX4032], in series [1], the “BRAF mutant metastatic melanomas regressed in response to treatment” value was “approximately 80%”. `CNC(=O)c1cc(Oc2ccc(NC(=O)Nc3ccc(Cl)c(C(F)(F)F)c3)cc2)ccn1` [sorafenib, 4-[4-[[4-chloro-3-(trifluoromethyl)phenyl]carbamoylamino]phenoxy]-N-methyl-pyridine-2-carboxamide]: the “clinical benefit in melanoma patients” value in the series on melanoma is listed as “only shows marginal clinical benefit”.

By viability is commonly meant a read-out of living cells in per cent, often relative to untreated cells.
